Test results: paper PMC5218480 (PLoS ONE, 2017)

Tested on: MV-4-11 cells
Assay: Gene expression microarray analysis (Affymetrix PrimeView) and GSEA
Assay type: cell-based, human
Design: RFU PODN (11730768_x_at) / Fold change /veh PODN (11730768_x_at) / RFU LINC00158 (11744669_a_at) / Fold change /veh LINC00158 (11744669_a_at) / RFU DUSP10 (11751237_a_at) / Fold change /veh DUSP10 (11751237_a_at) / RFU ID3 (11757404_x_at) / Fold change /veh ID3 (11757404_x_at) / RFU PLEKHG5 (11737974_s_at) / Fold change /veh PLEKHG5 (11737974_s_at) / RFU LRRC4B (11730491_at) / Fold change /veh LRRC4B (11730491_at) / RFU GIMAP4 (11747438_a_at) / Fold change /veh GIMAP4 (11747438_a_at) / RFU KRT8 (11758183_x_at) / Fold change /veh KRT8 (11758183_x_at) / RFU CNN1 (11734310_a_at) / Fold change /veh CNN1 (11734310_a_at) / RFU VPS37D (11726825_at) / Fold change /veh VPS37D (11726825_at) / RFU C10orf10 (11716522_x_at) / Fold change /veh C10orf10 (11716522_x_at) / RFU KIR2DL2 /// KIR2DL4 /// KIR2DL5A /// KIR2DL5B /// KIR2DS1 /// KIR2DS2 /// KIR2DS3 /// KIR2DS4 /// KIR3DL3 /// KIR3DL3 /// KIR3DS1 (11738374_at) / Fold change /veh KIR2DL2 /// KIR2DL4 /// KIR2DL5A /// KIR2DL5B /// KIR2DS1 /// KIR2DS2 /// KIR2DS3 /// KIR2DS4 /// KIR3DL3 /// KIR3DL3 /// KIR3DS1 (11738374_at) / RFU C1QL1 (11718748_at) / Fold change /veh C1QL1 (11718748_at) / RFU TMPRSS4 (11747572_a_at) / Fold change /veh TMPRSS4 (11747572_a_at) / RFU HAMP (11756126_x_at) / Fold change /veh HAMP (11756126_x_at) / RFU RNFT2 (11725882_a_at) / Fold change /veh RNFT2 (11725882_a_at) / RFU NR4A2 (11747474_a_at) / Fold change /veh NR4A2 (11747474_a_at) / RFU ABCC12 (11746883_a_at) / Fold change /veh ABCC12 (11746883_a_at) / RFU TMEM136 (11760407_x_at) / Fold change /veh TMEM136 (11760407_x_at) / RFU CLDN22 /// WWC2 (11732394_at) / Fold change /veh CLDN22 /// WWC2 (11732394_at) / RFU HLA-DPB1 (11760878_x_at) / Fold change /veh HLA-DPB1 (11760878_x_at) / RFU SPINT1 (11716480_a_at) / Fold change /veh SPINT1 (11716480_a_at) / RFU GAP43 (11754022_s_at) / Fold change /veh GAP43 (11754022_s_at) / RFU A4GNT (11735810_at) / Fold change /veh A4GNT (11735810_at) / RFU PRB3 (11715151_x_at) / Fold change /veh PRB3 (11715151_x_at) / RFU TUBB4B (11761932_at) / Fold change /veh TUBB4B (11761932_at) / RFU CAPN14 (11732068_a_at) / Fold change /veh CAPN14 (11732068_a_at) / RFU TMCC2 (11721928_a_at) / Fold change /veh TMCC2 (11721928_a_at) / RFU IRGQ (11745062_a_at) / Fold change /veh IRGQ (11745062_a_at) / RFU FAM174B (11720279_a_at) / Fold change /veh FAM174B (11720279_a_at) / RFU TMPRSS4 (11748680_a_at) / Fold change /veh TMPRSS4 (11748680_a_at) / RFU FAM212B (11763350_a_at) / Fold change /veh FAM212B (11763350_a_at) / RFU PLEKHG5 (11743358_a_at) / Fold change /veh PLEKHG5 (11743358_a_at) / RFU ZSCAN30 (11745921_a_at) / Fold change /veh ZSCAN30 (11745921_a_at) / RFU CMKLR1 (11741424_a_at) / Fold change /veh CMKLR1 (11741424_a_at) / RFU LOC101060620 /// MAPK8IP1 (11723275_at) / Fold change /veh LOC101060620 /// MAPK8IP1 (11723275_at) / RFU SPTSSB (11747773_x_at) / Fold change /veh SPTSSB (11747773_x_at) / RFU PRSS12 (11739890_at) / Fold change /veh PRSS12 (11739890_at) / RFU BIN1 (11741810_x_at) / Fold change /veh BIN1 (11741810_x_at) / RFU WNT11 (11732464_a_at) / Fold change /veh WNT11 (11732464_a_at) / RFU C10orf10 (11716521_a_at) / Fold change /veh C10orf10 (11716521_a_at) / RFU C5orf56 (11738089_at) / Fold change /veh C5orf56 (11738089_at) / RFU CYB561 (11721691_x_at) / Fold change /veh CYB561 (11721691_x_at) / RFU ANKRD19P (11752326_a_at) / Fold change /veh ANKRD19P (11752326_a_at) / RFU OR2T12 /// OR2T33 /// OR2T8 (11738714_s_at) / Fold change /veh OR2T12 /// OR2T33 /// OR2T8 (11738714_s_at) / RFU VCAN (11748164_a_at) / Fold change /veh VCAN (11748164_a_at) / RFU JSRP1 (11732532_at) / Fold change /veh JSRP1 (11732532_at) / RFU KRTAP10-11 (11738290_x_at) / Fold change /veh KRTAP10-11 (11738290_x_at) / RFU MYO3A (11730013_a_at) / Fold change /veh MYO3A (11730013_a_at) / RFU EBF3 (11725865_a_at) / Fold change /veh EBF3 (11725865_a_at) / RFU CAMK2N1 (11719241_x_at) / Fold change /veh CAMK2N1 (11719241_x_at) / RFU C5orf56 (11738088_a_at) / Fold change /veh C5orf56 (11738088_a_at) / RFU OLFML3 (11715873_a_at) / Fold change /veh OLFML3 (11715873_a_at) / RFU LOC100653217 /// NTM (11731650_a_at) / Fold change /veh LOC100653217 /// NTM (11731650_a_at) / RFU MAPK11 (11762145_a_at) / Fold change /veh MAPK11 (11762145_a_at) / RFU FIZ1 (11724087_x_at) / Fold change /veh FIZ1 (11724087_x_at) / RFU OASL (11726364_x_at) / Fold change /veh OASL (11726364_x_at) / RFU SOX15 (11748057_x_at) / Fold change /veh SOX15 (11748057_x_at) / RFU CD79A (11719716_a_at) / Fold change /veh CD79A (11719716_a_at) / RFU HIST1H1D (11736915_at) / Fold change /veh HIST1H1D (11736915_at) / RFU CASKIN2 (11723855_a_at) / Fold change /veh CASKIN2 (11723855_a_at) / RFU LOC730098 (11760151_x_at) / Fold change /veh LOC730098 (11760151_x_at) / RFU OR4N2 (11742367_at) / Fold change /veh OR4N2 (11742367_at) / RFU PRRT2 (11749266_a_at) / Fold change /veh PRRT2 (11749266_a_at) / RFU SNX32 (11753110_a_at) / Fold change /veh SNX32 (11753110_a_at) / RFU CDHR5 (11726645_a_at) / Fold change /veh CDHR5 (11726645_a_at) / RFU RCAN1 (11760418_a_at) / Fold change /veh RCAN1 (11760418_a_at) / RFU FAM167A (11723789_a_at) / Fold change /veh FAM167A (11723789_a_at) / RFU FAM26E (11764081_at) / Fold change /veh FAM26E (11764081_at) / RFU ISYNA1 (11749810_s_at) / Fold change /veh ISYNA1 (11749810_s_at) / RFU ACY1 (11761880_at) / Fold change /veh ACY1 (11761880_at) / RFU 11764098_at / Fold change /veh 11764098_at / RFU SAMD14 (11745864_x_at) / Fold change /veh SAMD14 (11745864_x_at) / RFU NPB (11741838_a_at) / Fold change /veh NPB (11741838_a_at) / RFU TMPRSS6 (11731388_a_at) / Fold change /veh TMPRSS6 (11731388_a_at) / RFU KRTAP10-2 (11738614_at) / Fold change /veh KRTAP10-2 (11738614_at) / RFU ARHGAP8 /// PRR5-ARHGAP8 (11727945_x_at) / Fold change /veh ARHGAP8 /// PRR5-ARHGAP8 (11727945_x_at) / RFU KRTAP5-7 /// NADSYN1 (11734609_at) / Fold change /veh KRTAP5-7 /// NADSYN1 (11734609_at) / RFU RASL12 (11751679_a_at) / Fold change /veh RASL12 (11751679_a_at) / RFU CDKN2B (11736163_a_at) / Fold change /veh CDKN2B (11736163_a_at) / RFU PRF1 (11729649_at) / Fold change /veh PRF1 (11729649_at) / RFU, ZNF638 /// ZNF638-IT1 / Fold change vs veh, ZNF638 /// ZNF638-IT1 / RFU, PANK3 / Fold change vs veh, PANK3 / RFU, SH3YL1 / Fold change vs veh, SH3YL1 / RFU, ZEB2 / Fold change vs veh, ZEB2 / RFU, NRIP1 / Fold change vs veh, NRIP1 / RFU, PTTG1IP / Fold change vs veh, PTTG1IP / RFU, CAPN2 / Fold change vs veh, CAPN2 / RFU, MED14 / Fold change vs veh, MED14 / RFU, SNORA58 / Fold change vs veh, SNORA58 / RFU, C1orf63 / Fold change vs veh, C1orf63 / RFU, LRRFIP1 / Fold change vs veh, LRRFIP1 / RFU, NDUFAF7 / Fold change vs veh, NDUFAF7 / RFU, SLC12A2 / Fold change vs veh, SLC12A2 / RFU, IBTK / Fold change vs veh, IBTK / RFU, ESF1 / Fold change vs veh, ESF1 / Fold change vs veh, TMEM50B / RFU, TAOK1 / Fold change vs veh, TAOK1 / RFU, ACBD3 / Fold change vs veh, ACBD3 / RFU, TMA16 / Fold change vs veh, TMA16 / RFU, RWDD3 / Fold change vs veh, RWDD3 / RFU, BCAT1 / Fold change vs veh, BCAT1 / RFU, EDEM3 / Fold change vs veh, EDEM3 / RFU, TMEM33 / Fold change vs veh, TMEM33 / RFU, WDR75 / Fold change vs veh, WDR75 / RFU, AHCTF1 / Fold change vs veh, AHCTF1 / RFU, TFRC / Fold change vs veh, TFRC / RFU, ZDHHC17 / Fold change vs veh, ZDHHC17 / RFU, NOM1 / Fold change vs veh, NOM1 / RFU, ARL8B / Fold change vs veh, ARL8B / RFU, ZBTB11 / Fold change vs veh, ZBTB11 / RFU, TAMM41 / Fold change vs veh, TAMM41 / RFU, KIAA1704 /// LOC100996395 / Fold change vs veh, KIAA1704 /// LOC100996395 / RFU, ING1 / Fold change vs veh, ING1 / RFU, TRMT61B / Fold change vs veh, TRMT61B / RFU, FUBP3 / Fold change vs veh, FUBP3 / RFU, TP53 / Fold change vs veh, TP53 / RFU, TNKS2 / Fold change vs veh, TNKS2 / RFU, ZFP14 / Fold change vs veh, ZFP14 / RFU, ACTR2 / Fold change vs veh, ACTR2 / RFU, PPP3R1 / Fold change vs veh, PPP3R1 / RFU, PIK3R1 / Fold change vs veh, PIK3R1 / RFU, HNRNPA1 / Fold change vs veh, HNRNPA1 / RFU, RNF170 / Fold change vs veh, RNF170 / RFU, ZNF28 / Fold change vs veh, ZNF28 / RFU, RNGTT / Fold change vs veh, RNGTT / RFU, OGT / Fold change vs veh, OGT / RFU, BRD1 / Fold change vs veh, BRD1 / RFU, MARS / Fold change vs veh, MARS / RFU, ZNF655 / Fold change vs veh, ZNF655 / RFU, FAHD1 / Fold change vs veh, FAHD1 / RFU, BDP1 / Fold change vs veh, BDP1 / RFU, LRRCC1 / Fold change vs veh, LRRCC1 / RFU, ARID1A / Fold change vs veh, ARID1A / RFU, ZNF146 / Fold change vs veh, ZNF146 / RFU, ZNF330 / Fold change vs veh, ZNF330 / RFU, GPN3 / Fold change vs veh, GPN3 / RFU, C9orf123 / Fold change vs veh, C9orf123 / RFU, N4BP2L2 / Fold change vs veh, N4BP2L2 / RFU, ARFIP1 / Fold change vs veh, ARFIP1 / RFU, FAM179B / Fold change vs veh, FAM179B / RFU, BCL10 / Fold change vs veh, BCL10 / RFU, UHRF1BP1L / Fold change vs veh, UHRF1BP1L / RFU, BET1 / Fold change vs veh, BET1 / RFU, CNOT2 / Fold change vs veh, CNOT2 / RFU, ZNF268 / Fold change vs veh, ZNF268 / Fold change vs veh, ZNF507 / RFU, DGCR2 / Fold change vs veh, DGCR2 / RFU, WDSUB1 / Fold change vs veh, WDSUB1 / Fold change vs veh, HSP90B1 /// MIR3652 / RFU, ADSS / Fold change vs veh, ADSS / RFU, GK / Fold change vs veh, GK / RFU, ZNF148 / Fold change vs veh, ZNF148 / RFU, TAF9 / Fold change vs veh, TAF9 / RFU, SLC1A5 / Fold change vs veh, SLC1A5 / RFU, SLMO2 / Fold change vs veh, SLMO2 / RFU, ABCC4 / Fold change vs veh, ABCC4 / RFU, LOC101060439 /// RAP1B / Fold change vs veh, LOC101060439 /// RAP1B / RFU, RFX7 / Fold change vs veh, RFX7 / RFU, GTPBP10 / Fold change vs veh, GTPBP10 / RFU, CNEP1R1 / Fold change vs veh, CNEP1R1 / RFU, BIVM-ERCC5 /// ERCC5 / Fold change vs veh, BIVM-ERCC5 /// ERCC5 / RFU, ILF3 / Fold change vs veh, ILF3 / RFU 11762660_at / Fold change /veh 11762660_at / RFU VCAN (11757783_s_at) / Fold change /veh VCAN (11757783_s_at) / RFU DDX43 (11728927_at) / Fold change /veh DDX43 (11728927_at) / RFU KRT8 (11758188_x_at) / Fold change /veh KRT8 (11758188_x_at) / RFU NKD1 (11759106_at) / Fold change /veh NKD1 (11759106_at) / RFU SRD5A1 (11742802_a_at) / Fold change /veh SRD5A1 (11742802_a_at) / RFU TPSAB1 /// TPSB2 (11721975_s_at) / Fold change /veh TPSAB1 /// TPSB2 (11721975_s_at) / RFU GSTM3 (11746129_a_at) / Fold change /veh GSTM3 (11746129_a_at) / RFU IL23R (11737362_x_at) / Fold change /veh IL23R (11737362_x_at) / RFU TMEM51 (11727254_a_at) / Fold change /veh TMEM51 (11727254_a_at) / RFU PIWIL2 (11732686_x_at) / Fold change /veh PIWIL2 (11732686_x_at) / RFU ORM1 (11744905_x_at) / Fold change /veh ORM1 (11744905_x_at) / RFU CCDC152 (11743942_at) / Fold change /veh CCDC152 (11743942_at) / RFU ECM1 (11717891_a_at) / Fold change /veh ECM1 (11717891_a_at) / RFU IL23R (11748794_a_at) / Fold change /veh IL23R (11748794_a_at) / RFU TNFAIP8L3 (11732012_x_at) / Fold change /veh TNFAIP8L3 (11732012_x_at) / RFU MBOAT4 (11741988_at) / Fold change /veh MBOAT4 (11741988_at) / RFU 11764193_at / Fold change /veh 11764193_at / RFU TMEM53 (11763286_at) / Fold change /veh TMEM53 (11763286_at) / RFU MAGEB2 (11727129_at) / Fold change /veh MAGEB2 (11727129_at) / RFU TMEM200A (11744735_a_at) / Fold change /veh TMEM200A (11744735_a_at) / RFU CCDC152 (11751479_a_at) / Fold change /veh CCDC152 (11751479_a_at) / RFU FAM211A (11726209_a_at) / Fold change /veh FAM211A (11726209_a_at) / RFU RGS16 (11746705_a_at) / Fold change /veh RGS16 (11746705_a_at) / RFU VCAN (11755009_s_at) / Fold change /veh VCAN (11755009_s_at) / RFU RHOB (11743442_s_at) / Fold change /veh RHOB (11743442_s_at) / RFU RGS16 (11720943_a_at) / Fold change /veh RGS16 (11720943_a_at) / RFU RGS16 (11720944_at) / Fold change /veh RGS16 (11720944_at) / RFU, VPS4B / Fold change vs veh, VPS4B / RFU, CREB1 / Fold change vs veh, CREB1 / RFU, DNAJC13 / Fold change vs veh, DNAJC13 / RFU, GNAQ / Fold change vs veh, GNAQ / RFU, CDK5R1 / Fold change vs veh, CDK5R1 / RFU, ZRANB3 / Fold change vs veh, ZRANB3 / RFU, CUL4A / Fold change vs veh, CUL4A / RFU, CCNY / Fold change vs veh, CCNY / RFU, UFL1 / Fold change vs veh, UFL1 / RFU, COG3 / Fold change vs veh, COG3 / RFU, DIAPH2 / Fold change vs veh, DIAPH2 / RFU, SKA2 / Fold change vs veh, SKA2 / RFU, AFF3 / Fold change vs veh, AFF3 / RFU, LMF1 / Fold change vs veh, LMF1 / RFU, IPO11 / Fold change vs veh, IPO11 / RFU, DFFB / Fold change vs veh, DFFB / RFU, FOXP1 / Fold change vs veh, FOXP1 / RFU, CARD8 / Fold change vs veh, CARD8 / RFU, STRN3 / Fold change vs veh, STRN3 / RFU, ADK / Fold change vs veh, ADK / RFU, RASSF2 / Fold change vs veh, RASSF2 / RFU, WIPF1 / Fold change vs veh, WIPF1 / RFU, LARP1B / Fold change vs veh, LARP1B / RFU, RASA1 / Fold change vs veh, RASA1 / RFU, RB1 / Fold change vs veh, RB1 / RFU, PPFIA1 / Fold change vs veh, PPFIA1 / RFU, MAT2A / Fold change vs veh, MAT2A / RFU, CCT5 / Fold change vs veh, CCT5 / RFU, WDR92 / Fold change vs veh, WDR92 / RFU, CUX1 / Fold change vs veh, CUX1 / RFU, TTC7A / Fold change vs veh, TTC7A / RFU, TMEM135 / Fold change vs veh, TMEM135 / RFU, DEPTOR / Fold change vs veh, DEPTOR / RFU, CPM / Fold change vs veh, CPM / RFU, DNAJB6 / Fold change vs veh, DNAJB6 / RFU, CACNA2D3 / Fold change vs veh, CACNA2D3 / RFU, DTX4 / Fold change vs veh, DTX4 / RFU, TFCP2 / Fold change vs veh, TFCP2 / RFU, GMCL1 /// GMCL1P1 / Fold change vs veh, GMCL1 /// GMCL1P1 / RFU, AEBP2 / Fold change vs veh, AEBP2 / RFU, SNHG1 /// SNORD22 /// SNORD25 /// SNORD26 /// SNORD27 /// SNORD28 /// SNORD29 /// SNORD31 / Fold change vs veh, SNHG1 /// SNORD22 /// SNORD25 /// SNORD26 /// SNORD27 /// SNORD28 /// SNORD29 /// SNORD31 / Fold change (Aza/veh), C12orf56 (ProbeSet 11735607_a_at) / Fold change (ACY-1035/veh), C12orf56 (ProbeSet 11735607_a_at) / Fold change (Aza/veh), FGFR1OP (ProbeSet 11751329_s_at) / Fold change (ACY-1035/veh), FGFR1OP (ProbeSet 11751329_s_at) / Fold change (Aza/veh), VPS36 (ProbeSet 11739960_a_at) / Fold change (ACY-1035/veh), VPS36 (ProbeSet 11739960_a_at) / RFU SYPL1 (11715823_x_at) / Fold change /veh SYPL1 (11715823_x_at) / RFU IGFBP7 (11715501_s_at) / Fold change /veh IGFBP7 (11715501_s_at) / RFU REEP3 (11722064_at) / Fold change /veh REEP3 (11722064_at) / RFU IGLL1 (11728026_x_at) / Fold change /veh IGLL1 (11728026_x_at): dose or concentration left out as unconfirmed
Details: ProbeSet 11755436_x_at; LIST B

## Nc1ccc(-c2cccs2)cc1NC(=O)c1ccc2c(c1)cc(C1CC1)n2CCN1CCOCC1 [ACY-1035]
  Fold change vs veh, ARID1A: 0.98
